Assay results taken from PMC11432771, “Sphaerococcenol A Derivatives: Design, Synthesis, and Cytotoxicity” (Marine Drugs, 2024).
pIC50: −log10 of the molar value.

Legend:
A549 cells = experiment: MTT cytotoxicity assay, A549 cells; type: cell-based; settings: for pIC50: MTT assay, 24 h, 1–100 µM, 95% confidence interval in parentheses; for SI (A549): SI = IC50 of FL83B/IC50 on A549
Description: (§1) Three malignant cell lines (between passages 10 and 25) obtained from the DMSZ-German Collection of Microorganisms and Cell Cultures GmbH biobank were used: A549 (lung carcinoma), DU-145 (prostate carcinoma), and MCF-7 (breast adenocarcinoma). MCF-7 (ACC-115) and DU-145 (ACC-261) cells were maintained in RPMI 1640 medium (Merck, Darmstadt, Germany) supplemented with 10% FBS (fetal bovine serum, Biowest, Riverside, MO, USA) and 1% antimycotic and antibiotic solution (Biowest, Nuaillé, France). A549 (ACC-107) cells were maintained in DMEM:F12 medium (Merck, Darmstadt, Germany) and also supplemented with 10% FBS (Biowest, Riverside, MO, USA) and a 1% solution of antimycotic and antibiotic (Biowest, Nuaillé, France). FL83B hepatocytes (FL83B; ATCC: CLR-2390) were used as the non-malignant cell line. The cells were cultured in F-12K medium supplemented with FBS 10% (Biowest, Riverside, MO, USA) and 1% solution of antimycotic and antibiotic (Biowest, Nuaillé, France).
(§2) The effects of sphaerococcenol A and its analogues (1–6) on the viability of malignant cell lines were studied through three distinct assays, 3-(4,5-dimethylthiazol-2-yl)-2,5-diphenyltetrazolium bromide (MTT), lactate dehydrogenase (LDH) activity, and calcein-AM, targeting different cellular biomarkers. Untreated cells with DMSO (<0.2%) were used as control, and saponin (0.4 mg/mL) (Sigma, Darmstadt, Germany) was used as the positive control for cell death.
(§3) The cells were incubated with compounds at different concentrations (1–100 µM) for 24 h. After the 24 h was over, cells were washed with PBS buffer (pH = 7.4) and incubated for 60 min with the MTT solution (1.2 mM) previously prepared in a fresh medium. The MTT solution was then removed, and 100 µL of dimethyl sulfoxide (DMSO) was added to dissolve the formazan crystals. The results were expressed as the half-maximal inhibitory concentration (IC50) after reading the absorbance at 570 nm using a microplate reader (Synergy H1, BioTek Instruments, USA). The selectivity index (SI) was calculated as the ratio of the IC50 value for a normal cell line to the IC50 value for the corresponding tumor cell line (SI = IC50 of non-malignant cell line/IC50 of malignant cell line), where an SI ≥ 2 of a compound represents a selective toxicity towards malignant cells, while an SI value < 2 is considered generally toxic.
(§4) The data were obtained from at least three independent experiments (n = 3) carried out in triplicate and presented as mean ± standard error of the mean (SEM). The data were checked for normality and homoscedasticity. […] A one-way analysis of variance (ANOVA) with Dunnett′s multiple comparison of group means was employed to determine significant differences to the control treatment and/or a two-way ANOVA with Bonferroni’s test. All other post hoc analyses were conducted using Tukey’s test. The differences were considered significant at a level of 0.05 (p < 0.05). The inhibitory concentrations (IC50) were determined by means of the equation y = 100/(1 + 10(x − logIC50)). All data were analyzed using the software SPSS v28.0.0.0 (SPSS Inc., Chicago, IL, USA) and GraphPad v8.0.2 (GraphPad Software, Inc., La Jolla, CA, USA).

DU-145 cells = experiment: MTT cytotoxicity assay, DU-145 cells; type: cell-based; settings: for pIC50: Homo sapiens, DU-145, MTT assay, 24 h, 1–100 µM, 95% confidence interval in parentheses; for SI (DU-145): SI = IC50 of FL83B/IC50 on DU-145
Description: as §1, §2, §3, §4

MCF-7 cells [1] = experiment: MTT cytotoxicity assay, MCF-7 cells; type: cell-based; settings: for SI (MCF-7): SI = IC50 of FL83B/IC50 on MCF-7; for pIC50: MTT assay, 24 h, 1–100 µM, 95% confidence interval in parentheses
Description: as §1, §2, §3, §4

FL83B hepatocytes = experiment: MTT cytotoxicity assay, non-malignant FL83B hepatocytes; type: cell-based; settings: non-malignant cell line, 24 h, 1–100 µM, 95% confidence interval in parentheses
Description: Three malignant cell lines (between passages 10 and 25) obtained from the DMSZ-German Collection of Microorganisms and Cell Cultures GmbH biobank were used: A549 (lung carcinoma), DU-145 (prostate carcinoma), and MCF-7 (breast adenocarcinoma). MCF-7 (ACC-115) and DU-145 (ACC-261) cells were maintained in RPMI 1640 medium (Merck, Darmstadt, Germany) supplemented with 10% FBS (fetal bovine serum, Biowest, Riverside, MO, USA) and 1% antimycotic and antibiotic solution (Biowest, Nuaillé, France). A549 (ACC-107) cells were maintained in DMEM:F12 medium (Merck, Darmstadt, Germany) and also supplemented with 10% FBS (Biowest, Riverside, MO, USA) and a 1% solution of antimycotic and antibiotic (Biowest, Nuaillé, France). FL83B hepatocytes (FL83B; ATCC: CLR-2390) were used as the non-malignant cell line. The cells were cultured in F-12K medium supplemented with FBS 10% (Biowest, Riverside, MO, USA) and 1% solution of antimycotic and antibiotic (Biowest, Nuaillé, France). […]
as §3, with “After the 24 h was over, cells were washed with PBS buffer (pH = 7.4) and incubated for 60 min with the MTT solution (1.2 mM) previously prepared in a fresh medium. The MTT solution was then removed, and 100 µL of dimethyl sulfoxide (DMSO) was added to dissolve the formazan crystals.” left out
The data were obtained from at least three independent experiments (n = 3) carried out in triplicate and presented as mean ± standard error of the mean (SEM). […] The inhibitory concentrations (IC50) were determined by means of the equation y = 100/(1 + 10(x − logIC50)). All data were analyzed using the software SPSS v28.0.0.0 (SPSS Inc., Chicago, IL, USA) and GraphPad v8.0.2 (GraphPad Software, Inc., La Jolla, CA, USA).

[2] = test system: A549, DU-145, and MCF-7 malignant cells; experiment: MTT cytotoxicity assay, stated across the three malignant cell lines; type: cell-based; settings: SI = IC50 of FL83B/IC50 of malignant cell line; over A549, DU-145, MCF-7
Description: Three malignant cell lines (between passages 10 and 25) obtained from the DMSZ-German Collection of Microorganisms and Cell Cultures GmbH biobank were used: A549 (lung carcinoma), DU-145 (prostate carcinoma), and MCF-7 (breast adenocarcinoma). MCF-7 (ACC-115) and DU-145 (ACC-261) cells were maintained in RPMI 1640 medium (Merck, Darmstadt, Germany) supplemented with 10% FBS (fetal bovine serum, Biowest, Riverside, MO, USA) and 1% antimycotic and antibiotic solution (Biowest, Nuaillé, France). […]
as §3, with “After the 24 h was over, cells were washed with PBS buffer (pH = 7.4) and incubated for 60 min with the MTT solution (1.2 mM) previously prepared in a fresh medium. The MTT solution was then removed, and 100 µL of dimethyl sulfoxide (DMSO) was added to dissolve the formazan crystals.” left out
The data were obtained from at least three independent experiments (n = 3) carried out in triplicate and presented as mean ± standard error of the mean (SEM). […] The inhibitory concentrations (IC50) were determined by means of the equation y = 100/(1 + 10(x − logIC50)). […]

U373 cells = test system: U373 cells; parameters: method as in PMID 20045651; settings: inhibiting the cell entry into the mitosis phase; cited from earlier work
MCF-7 cells [3] = test system: MCF-7 cells; parameters: method as in PMID 35378501; settings: previous studies; cited from earlier work

| Structure (SMILES) | pIC50 (A549 cells; Homo sapiens, A549, 24 h) | SI (A549) (A549 cells) | pIC50 (DU-145 cells) | SI (DU-145) (DU-145 cells) | SI (MCF-7) (MCF-7 cells [1]) | pIC50 (FL83B hepatocytes) | selectivity index across the malignant cell lines [2] | pIC50 (A549 cells) | pIC50 (MCF-7 cells [1]) | pIC50 (MCF-7 cells [1]; Homo sapiens, MCF7, 24 h) | effect on human apoptosis-resistant U373 cells (U373 cells) | events accompanying decrease in MCF-7 cell viability (MCF-7 cells [3]) |
| --- | --- | --- | --- | --- | --- | --- | --- | --- | --- | --- | --- | --- |
| CC(C)[C@@H]1CC=C[C@H]2[C@@H]3[C@](C)(O)C(=O)CC(SCc4ccccc4)[C@@]3(C)CC[C@]12CBr (stereo partly drawn) [Compound 4, (4S,4aS,4bS,8S,8aS,10aS)-1-(Benzylthio)-8a-(bromomethyl)-4-hydroxy-8-isopropyl-4,10a-dimethyl-1,4,4a,4b,7,8,8a,9,10,10a-decahydrophenanthren-3(2H)-one] | 4.45 | 1.1 | 4.15 | 0.6 | 1.3 | 4.39 | 0.6–1.3 | – | – | – | – | – |
| CCCSC1CC(=O)[C@@](C)(O)[C@H]2[C@@H]3C=CC[C@@H](C(C)C)[C@@]3(CBr)CC[C@]12C (single isomer, unassigned) [Compound 3] | – | 2.5 | – | 2.8 | 4.0 | 4.25 | – | 4.65 | 4.84 | – | – | – |
| CC(C)C1CC=CC2C3C(C)(CCC(O)C3(C)O)CCC21CBr (stereo not drawn) [Compound 5] | – | 3.7 | – | 4.4 | 2.6 | – | – | – | – | – | – | – |
| CC(C)C1CC=CC2C3C(C)(CCC(O)C3(C)O)CCC21CBr (stereo not drawn) [Compound 6] | – | 1.9 | – | 3.1 | 2.9 | – | – | – | – | – | – | – |
| CCCSC1CC(=O)[C@@](C)(O)[C@H]2[C@@H]3C=CC[C@@H](C(C)C)[C@@]3(CBr)CC[C@]12C (single isomer, unassigned) [Compound 2] | 4.47 | 1.4 | – | 1.9 | 0.7 | – | – | – | 4.15 | – | – | – |
| CC(C)[C@@H]1CC=C[C@H]2[C@H]3[C@@](C)(C=CC(=O)[C@@]3(C)O)CC[C@]12CBr [Sphaerococcenol A] | 4.82 | 2.5 | 5.43 | 10.0 | 5.7 | 4.43 | – | – | – | 5.19 | cytostatic effect | production of hydrogen peroxide, changes in mitochondrial membrane potential, the stimulation of Caspase-9 activity, and nuclear morphology alterations |
